Activity calls are given as the source filed them.
system: not listed separately; assay: Luminescence Cell-Based Dose Confirmation HTS to Identify Activators of 5'UTR Stem-Loop Driven Alpha-Synuclein mRNA Translation in H4 Neuroglioblastoma Cells. [Related pubchem assays: 1829 (Project Summary), 1814 (Primary HTS)]; format: functional; conditions: not given

Compound | EC50
c1ccc(-c2onc(-c3ccco3)c2-c2ccc3[nH]ccc3c2)cc1 | 14.3 µM (active)
CNC(C)C#Cc1ccc2sc3cc(OC)c(OC)cc3c(=O)c2c1 (stereo not given) | 22.3 µM (active)
Cc1ccc(OC(=O)NC2CCS(=O)(=O)C2)cc1C (stereo not given) | > 120 µM (not active)
CCc1ccc(CN(C(=O)c2cc3ccccc3oc2=O)C2CCS(=O)(=O)C2)cc1 (stereo not given) | 27.7 µM (active)
O=C(COc1ccc(Br)cc1Br)NC(=O)NC1CCCC1 | 8.14 µM (active)
Nc1nc(CSCc2ccccc2)nc(N2CCOCC2)n1 | > 120 µM (not active)
Cc1ccc(C(=O)CCC2CCCCC2=O)cc1 (stereo not given) | 13.2 µM (active)
CCOc1ccc2nc(N3CCCC(C(=O)NCC4CCCO4)C3)sc2c1 (stereo not given) | 17.5 µM (active)

system: not listed separately; assay: Luminescence Cell-Based Dose Response HTS to Identify Activators of Luciferase Translation or Activity in H4 […] Cells. [Related pubchem assays: 1829 (Project Summary), 1814 (Primary HTS)]; format: functional; conditions: not given

Compound | EC50
c1ccc(-c2onc(-c3ccco3)c2-c2ccc3[nH]ccc3c2)cc1 | 63.1 µM (active)
CNC(C)C#Cc1ccc2sc3cc(OC)c(OC)cc3c(=O)c2c1 (stereo not given) | 15.3 µM (active)
Cc1ccc(OC(=O)NC2CCS(=O)(=O)C2)cc1C (stereo not given) | > 120 µM (not active)
CCc1ccc(CN(C(=O)c2cc3ccccc3oc2=O)C2CCS(=O)(=O)C2)cc1 (stereo not given) | 28.6 µM (active)
O=C(COc1ccc(Br)cc1Br)NC(=O)NC1CCCC1 | 33.4 µM (active)
Nc1nc(CSCc2ccccc2)nc(N2CCOCC2)n1 | 6.28 µM (active)
Cc1ccc(C(=O)CCC2CCCCC2=O)cc1 (stereo not given) | 36.7 µM (active)
CCOc1ccc2nc(N3CCCC(C(=O)NCC4CCCO4)C3)sc2c1 (stereo not given) | 17.1 µM (active)

system: Streptococcus sp. 'group A'; assay: Streptococcus pyogenes SK(-)GAS viability under kanamycin – luminescence, BacTiterGlo, confirmation, counter-screen for streptokinase expression inhibitor project, dose response (AID 1900); format: functional, organism-based; conditions: not given

Compound | EC50
c1ccc(-c2onc(-c3ccco3)c2-c2ccc3[nH]ccc3c2)cc1 | 3.19 µM (active)

system: H4; assay: Luminescence Cell-Based Dose Response HTS to Identify Activators of 5'UTR Stem-Loop Driven Prion Protein mRNA Translation in H4 Neuroglioblastoma Cells. [Related pubchem assays: 1829 (Project Summary), 1814 (Primary HTS)]; format: functional; conditions: Homo sapiens

Compound | EC50
c1ccc(-c2onc(-c3ccco3)c2-c2ccc3[nH]ccc3c2)cc1 | 23.7 µM (active)
CNC(C)C#Cc1ccc2sc3cc(OC)c(OC)cc3c(=O)c2c1 (stereo not given) | > 120 µM (not active)
Cc1ccc(OC(=O)NC2CCS(=O)(=O)C2)cc1C (stereo not given) | > 120 µM (not active)
CCc1ccc(CN(C(=O)c2cc3ccccc3oc2=O)C2CCS(=O)(=O)C2)cc1 (stereo not given) | 0.547 µM (active)
O=C(COc1ccc(Br)cc1Br)NC(=O)NC1CCCC1 | > 120 µM (not active)
Nc1nc(CSCc2ccccc2)nc(N2CCOCC2)n1 | 50.7 µM (active)
Cc1ccc(C(=O)CCC2CCCCC2=O)cc1 (stereo not given) | 28.4 µM (active)
CCOc1ccc2nc(N3CCCC(C(=O)NCC4CCCO4)C3)sc2c1 (stereo not given) | 17.2 µM (active)

molecular target: T1, Streptokinase A (Streptococcus pyogenes serotype M1, UniProt P10520); assay: viability-normalized secreted streptokinase activity reduction – plasminogen activation absorbance, OD405, dose response (AID 1914); format: functional, Streptococcus pyogenes M1 GAS; conditions: not given;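 also: secreted streptokinase activity via plasminogen activation per viability signal from cell pellet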
T1 sequence (P10520 whole entry): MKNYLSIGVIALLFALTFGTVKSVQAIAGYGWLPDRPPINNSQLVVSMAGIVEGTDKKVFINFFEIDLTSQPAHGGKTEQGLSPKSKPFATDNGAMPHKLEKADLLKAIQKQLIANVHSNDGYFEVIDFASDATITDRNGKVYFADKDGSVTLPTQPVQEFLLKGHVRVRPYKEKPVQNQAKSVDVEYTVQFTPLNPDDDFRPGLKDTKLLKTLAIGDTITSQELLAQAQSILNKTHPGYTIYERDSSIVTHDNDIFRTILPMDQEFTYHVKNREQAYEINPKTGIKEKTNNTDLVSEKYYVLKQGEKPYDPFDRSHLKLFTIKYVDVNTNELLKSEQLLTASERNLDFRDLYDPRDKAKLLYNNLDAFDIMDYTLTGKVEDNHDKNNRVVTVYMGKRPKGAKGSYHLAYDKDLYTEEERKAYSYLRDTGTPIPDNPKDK

Compound | EC50
c1ccc(-c2onc(-c3ccco3)c2-c2ccc3[nH]ccc3c2)cc1 | 4.99 µM (active)

system: Streptococcus; assay: GAS UMAA2166 growth inhibition – luminescence, BacTiterGlo, counter-screen for streptokinase expression inhibitor project, dose response (AID 1915); format: functional, organism-based; conditions: not given;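 also: potency for reduction of bacterial viability or growth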

Compound | EC50
c1ccc(-c2onc(-c3ccco3)c2-c2ccc3[nH]ccc3c2)cc1 | 26.4 µM (active)

molecular target: T2, Heat shock factor protein 1 (Mus musculus, UniProt P38532); assay: enhancement of HSF1-driven luciferase signal – cell-based, NIH3T3, luminescence, dose retest, confirmation (AID 435004); format: functional; conditions: not given;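 also: stress induced by proteasome inhibitor MG132 added 30 min after compound; luciferase reporter driven by HSF1 response element in NIH3T3 cells; actives raise luminescence as potentiators of the MG132 stress response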
T2 sequence (P38532 whole entry): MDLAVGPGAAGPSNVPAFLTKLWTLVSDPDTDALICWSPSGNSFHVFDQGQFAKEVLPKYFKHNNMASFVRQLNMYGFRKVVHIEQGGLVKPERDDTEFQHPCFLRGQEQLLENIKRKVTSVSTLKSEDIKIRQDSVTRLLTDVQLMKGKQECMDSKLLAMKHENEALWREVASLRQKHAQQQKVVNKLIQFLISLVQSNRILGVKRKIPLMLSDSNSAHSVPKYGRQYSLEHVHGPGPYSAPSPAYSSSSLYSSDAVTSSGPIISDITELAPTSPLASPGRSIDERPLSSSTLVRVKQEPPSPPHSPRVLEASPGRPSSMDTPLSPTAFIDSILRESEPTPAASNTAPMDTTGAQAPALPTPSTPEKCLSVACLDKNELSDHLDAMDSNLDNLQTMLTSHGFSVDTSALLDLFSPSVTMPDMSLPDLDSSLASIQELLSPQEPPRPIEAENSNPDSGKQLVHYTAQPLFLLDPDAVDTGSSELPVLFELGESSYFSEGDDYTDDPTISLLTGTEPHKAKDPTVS

Compound | EC50
Cc1ccc(-c2c3c(=O)n(C)c(=O)n(C)c3cn2-n2cnnc2)cc1 | 13.5 µM (active)

molecular target: FAD-linked sulfhydryl oxidase ALR (Homo sapiens, UniProt P55789); assay: ALR-catalysed DTT oxidation blockers – biochemical, H2O2 detection, luminescence, cherry-pick, dose response (AID 493248); conditions: not given
Sequence (P55789 whole entry): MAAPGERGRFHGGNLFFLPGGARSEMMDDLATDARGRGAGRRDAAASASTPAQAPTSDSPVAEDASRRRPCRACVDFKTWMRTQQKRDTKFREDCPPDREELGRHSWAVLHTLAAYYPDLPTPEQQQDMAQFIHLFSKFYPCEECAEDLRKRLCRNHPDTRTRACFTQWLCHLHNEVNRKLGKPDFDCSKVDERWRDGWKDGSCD

Compound | AC50
O=C(NCC(=O)N1CCN(c2ccccc2O)CC1)c1ccco1 | 2.22 µM (active)
CC(C)(C)OC(=O)NCc1nnc(S)n1C1CC1 | 5.46 µM (active)
O=C(c1cccc(C(F)(F)F)c1)C1CCCN(C(=O)c2cc(C3CC3)[nH]n2)C1 (stereo not given) | 0.392 µM (active)
Cc1ccc(C)c(NC(=O)NNS(=O)(=O)c2ccc(C)c(C)c2)c1 | 3.8 µM (active)
Cc1c(C(=O)O)c2cc(O)ccc2n1-c1ccccc1 | 5.18 µM (active)
[O-]c1c[n+](-c2ccc(-[n+]3cc([O-])on3)cc2)no1 | 4.1 µM (active)
Cc1ccc2occ(C3N[C@H](C(=O)O)CS3)c(=O)c2c1 (stereo not given in full) | 0.392 µM (active)
CCN(CC)c1ccc(NS(=O)(=O)c2ccc(-c3ccc(O)nn3)o2)c(C)c1 | 0.382 µM (active)
CCC1(C(=O)O)NC(c2cc(OC)ccc2O)C2C(=O)N(Cc3ccccc3)C(=O)C21 (stereo not given) | 7.15 µM (active)
Cc1ccc(-c2c3c(=O)n(C)c(=O)n(C)c3cn2-n2cnnc2)cc1 | 9.89 µM (active)
Oc1ccccc1/C=N/Nc1ccccc1 | 7.86 µM (active)
CCN(CC)C(=N)/C(C#N)=N/Nc1ccc(C)cc1 | 0.035 µM (active)
Cn1cccc1/C=N/N1CCN(c2ccccc2)CC1 | 85.3 µM (active)
CCCn1c2ccc(/C(C)=N\O)cc2c2cc(/C(C)=N/O)ccc21 | 0.028 µM (active)

molecular target: Cytochrome P450 2C19 (Homo sapiens, UniProt P33261); assay: Cytochrome panel assay with activity outcomes. Panel member name: p450-cyp2c19 Compounds with AC50 equal or less than 10 uM are considered active; format: functional; conditions: read-out: AC50
Sequence (P33261 whole entry): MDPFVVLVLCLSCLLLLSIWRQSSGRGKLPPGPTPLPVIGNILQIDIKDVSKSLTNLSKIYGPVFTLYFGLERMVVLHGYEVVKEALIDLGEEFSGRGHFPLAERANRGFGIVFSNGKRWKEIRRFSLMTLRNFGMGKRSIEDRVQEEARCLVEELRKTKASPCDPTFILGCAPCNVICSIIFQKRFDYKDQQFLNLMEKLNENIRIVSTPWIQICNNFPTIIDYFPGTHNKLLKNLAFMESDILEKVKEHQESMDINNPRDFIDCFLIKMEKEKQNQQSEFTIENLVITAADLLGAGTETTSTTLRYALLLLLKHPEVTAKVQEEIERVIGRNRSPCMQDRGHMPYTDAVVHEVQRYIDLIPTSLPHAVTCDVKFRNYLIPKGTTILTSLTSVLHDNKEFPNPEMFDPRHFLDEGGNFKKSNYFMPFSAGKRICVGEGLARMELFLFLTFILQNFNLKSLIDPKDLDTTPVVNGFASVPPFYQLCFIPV

Compound | AC50
CCc1ccc(CN(C(=O)c2cc3ccccc3oc2=O)C2CCS(=O)(=O)C2)cc1 (stereo not given) | 20 µM (inconclusive)

molecular target: T3, Rac GTPase-activating protein 1 (Homo sapiens, UniProt Q9H0H5); assay: blockers of MgcRacGAP-driven Rac1 GTP hydrolysis – biochemical, ADP Hunter fluorescence, primary and confirmatory, confirmation (AID 624330); format: functional; conditions: not given
T3 sequence (Q9H0H5 whole entry): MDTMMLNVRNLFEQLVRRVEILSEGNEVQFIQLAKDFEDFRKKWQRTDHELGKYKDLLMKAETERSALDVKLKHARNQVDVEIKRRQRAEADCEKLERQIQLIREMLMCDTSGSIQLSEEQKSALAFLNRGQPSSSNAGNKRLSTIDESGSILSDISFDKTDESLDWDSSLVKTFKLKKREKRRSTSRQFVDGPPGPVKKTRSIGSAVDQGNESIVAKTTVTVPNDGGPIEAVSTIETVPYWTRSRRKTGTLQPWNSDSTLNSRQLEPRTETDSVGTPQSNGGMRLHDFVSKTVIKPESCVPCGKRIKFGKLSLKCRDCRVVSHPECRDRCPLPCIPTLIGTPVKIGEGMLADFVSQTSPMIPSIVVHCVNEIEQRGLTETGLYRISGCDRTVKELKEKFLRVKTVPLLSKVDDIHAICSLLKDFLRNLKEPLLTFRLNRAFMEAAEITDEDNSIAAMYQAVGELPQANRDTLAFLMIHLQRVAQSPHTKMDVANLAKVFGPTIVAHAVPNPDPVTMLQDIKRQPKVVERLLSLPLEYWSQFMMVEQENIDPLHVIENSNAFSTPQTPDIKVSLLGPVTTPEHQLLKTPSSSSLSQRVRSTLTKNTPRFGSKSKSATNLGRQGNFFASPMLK

Compound | IC50
Cn1cccc1/C=N/N1CCN(c2ccccc2)CC1 | 84.2 µM (active)

molecular target: T4, Cytochrome P450 1A2 (Homo sapiens, UniProt P05177); conditions: not given;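 also: PubChem cytochrome P450 panel assay, CYP1A2 panel member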
T4 sequence (P05177 whole entry): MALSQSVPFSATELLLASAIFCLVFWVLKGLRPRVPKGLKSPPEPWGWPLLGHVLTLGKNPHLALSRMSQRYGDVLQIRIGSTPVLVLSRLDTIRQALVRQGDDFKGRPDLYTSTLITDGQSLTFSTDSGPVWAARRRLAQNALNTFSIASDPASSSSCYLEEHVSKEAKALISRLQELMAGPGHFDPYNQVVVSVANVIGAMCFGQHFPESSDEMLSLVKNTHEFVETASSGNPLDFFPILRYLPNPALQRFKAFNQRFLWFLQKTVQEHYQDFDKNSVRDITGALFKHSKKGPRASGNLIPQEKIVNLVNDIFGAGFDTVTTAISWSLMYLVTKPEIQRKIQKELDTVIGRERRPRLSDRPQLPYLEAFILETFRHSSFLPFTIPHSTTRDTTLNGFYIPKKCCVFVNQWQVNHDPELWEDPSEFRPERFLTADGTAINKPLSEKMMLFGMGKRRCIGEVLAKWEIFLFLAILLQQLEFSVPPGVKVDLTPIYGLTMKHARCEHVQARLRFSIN

Compound | AC50
CCc1ccc(CN(C(=O)c2cc3ccccc3oc2=O)C2CCS(=O)(=O)C2)cc1 (stereo not given) | 28.2 µM (inconclusive)
